Assays:
collagenase [1] = test: Inhibition of collagenase activity (azocol digestion, absorbance at 540 nm), Experiment 1; format: biochemical; details: Table 4; final concentration 0.02%, 10% ethanol solution
Protocol: The inhibition effects on collagenase activity of various substances including ursodesoxycholic acid and chenodesoxycholic acid as the effective components of the composition for enhancing oral hygiene according to the present invention were determined and compared according to the following method.
ursodesoxycholic aicd, chenodesoxycholic acid, fel tauri salt, bamboo salt, common salt, Machili cortex, Phellodendri cortex, Platycodi radix, Schizonepetae herba, Glycyrrhizae radix, Angelicae gigantis radix, Chamomillae flos, Myrrha, Theae folium, Taraxaci radix cum Herba, Lonicerae flos, Ciniicifugae rhizoma.
1 100 μl of 2% azocol solution was added to the test tube and then 190 μl of buffer solution (0.05M Tris-HCl, 1 mM CaCl2, pH 7.8) was added thereto.
2 To the resulting solution as prepared above was added to each test substance in the following concentration:
Ursodesoxycholic acid (10% ethanol solution) or chenodesoxycholic acid (10% ethanol solution) was added to the final concentration of 0.02%;
Fel tauri salt, bamboo salt or common salt was dissolved in the buffer solution as mentioned above and then added to the final concentration of 2.0%;
Machili cortex, Phellodendri cortex, Platycodi radix, Schizonepetae herba, Glycyrrhizae radix, Angelicae gigantis radix, Chamomillae flos, Myrrha, Theae folium, Taraxaci radix cum Herba, Lonicerae flos or Cimicifugae rhizoma was added in the form of 30% ethanol extract to the final concentration of 0.1%.
3 100 μl of collagenase having 100 ppm concentration was added and then the mixture was maintained in a 37° C. incubator for 18 hours. (Separately, the standard activity curve was prepared from 10, 100, 200 μl of collagenase.)
4 The test tubes were centrifuged for 5 minutes.
5 The supernatant was separated from the test tube and then added to the cell. The absorbance at 540 nm was measured by spectrophotometer and then the activity of the test group was determined from the standard activity curve.

[2] = tested on: Streptococcus mutans 10449, type C; test: Inhibition of plaque formation on glass bar by Streptococcus mutans, Experiment 2; format: cell-based; details: for plaque formation(%): 1440 min
Protocol: The inhibition effect of ursodesoxycholic acid, chenodesoxycholic acid and triclosan as the effective components of the composition for enhancing oral hygiene according to the present invention on plaque formation was determined and compared according to the following method.
Ursodesoxycholic acid, Chenodesoxycholic aicd, Triclosan.
1 Test strain, Streptococcus mutans 10449, type C was cultured in brain-heart infusion agar medium and then the cultured strain was inoculated on THB(Todd Hewitt Broth) and cultured at 37° C. for 15 hours.
2 The small glass bar was sterilized and then weighed.
3 This glass bar was introduced into the test tube in which the medium containing sucrose is included. The test substance was added at a given concentration to the test tube and then the test microorganism strain was added thereto. The test tube was cultured at 37° C. for 24 hours.
4 After incubation, the glass bar was carefully removed from the test tube and dried at 37° C. for one day. The final weight of the glass bar was measured. The control group was treated in the same manner as the test group except that the test substance is not added.
5 From the measured result, the plaque formation percentage was calculated according to the following equation: [formula]

plaque formation [3] = test: Plaque index of test subjects using dentifrice of Table 1, Experiment 3; format: in vivo, human; details: in words; for effect on the plaque formation: dentifrice
Protocol: (§1) The effect of inhibiting plaque formation and gingivitis was tested using the dentifrice compositions of Examples 1 to 6 and Comparative Examples 1 to 4 described in Table 1 according to the following method. The results are described in the following Tables 7 and 8.
(§2) 1 The test subjects were selected and were given the explanation of oral medical examination.
(§3) 2 The test subjects were divided such that the group for each composition of examples and comparative examples includes 10 subjects, and then had the education of correct brushing method. The test subject were subjected to the oral medical examination to measure the plaque index (Quigley-Hein Index modified by Turesky) and the gingivitis index (Gingival Bleeding Index, Loe-Silness Index).
(§4) 3 Before the test, all the test subjects were subjected to teeth scaling.
(§5) 4 The placebo dentifrice(calcium monohydrogenphosphate 40%, glycerin 25%, sodium laurylsulfate 1.5%, sodium saccharin 0.1%, paraoxybenzoic acid ester 0.1%, sodium carboxymethylcellulose 1%, purified water added to 100%) was used for 2 weeks and then the oral medical exmamination was conducted again to measure the plaque index and the gingivitis index as the initial value.
(§6) 5 The test subjects were allowed to brush using the dentifrice of examples and comparative examples for 4 weeks, three times for one day, according to the same method as usual. The oral medical examination was conducted at the second and fourth weeks to determine the plaque index score and the gingivitis index score.
(§7) 6 The score obtained after 4 weeks was compared with the initial value and examined for the statistic significance using T-test.

gingivitis [4] = test: Gingivitis index of test subjects using dentifrice of Table 1, Experiment 3; format: in vivo, human; details: for effect of alleviating gingivitis / effect on gingivitis in combination with bamboo salt, the extract of medicinal herbs, etc.: dentifrice, in words
Protocol: as §1, §2, §3, §4, §5, §6, §7

plaque formation [5] = test: Plaque index of test subjects using oral rinse of Table 2, Experiment 4; format: in vivo, human; details: in words
Source text: as §2, §3, §4, §5, §6
6 The score obtained after 4 weeks was compared with the initial value and examined for the statistic significance using T-test. […]

gingivitis [6] = test: Gingivitis index of test subjects using oral rinse of Table 2, Experiment 4; format: in vivo, human; details: in words
Source text: as §2, §3, §4, §5, §6, §7
The effect of inhibiting plaque formation and gingivitis was tested using the oral rinse compositions of Examples 7 to 12 and Comparative Examples 5 to 8 described in Table 2 according to the same method as Experiment 3. The results are described in the following Tables 9 and 10.

collagenase [7] = test: Inhibition of collagenase activity (azocol digestion, absorbance at 540 nm), Experiment 1; format: biochemical; details: for Absorbance (540 nm) / Enzyme activity inhibition (%): Table 5; for activity for inactivating collagenase / inhibition effect at the concentration in excess of 0.6% / inhibition effect on collagenase activity in comparison with extracts of other medicinal herbs: in words

## C[C@H](CCC(=O)O)[C@H]1CC[C@H]2[C@@H]3[C@H](O)C[C@@H]4C[C@H](O)CC[C@]4(C)[C@H]3CC[C@]12C [Chenodesoxycholic acid, chenodesoxycholic acid]
Collagenase [1]
  Absorbance (540 nm): 0.260
  Enzyme activity inhibition (%): 39.23%
[2]; 0.100 (unit not given)
  pH: 4.2
  plaque formation(%): 100.0%
Plaque formation [3]
  effect on the plaque formation: no significant effect on the plaque formation
  plaque effect in combination with the extract of other medicinal herbs: do not show any synergistic and antagonistic effect
Gingivitis [4]
  effect of alleviating gingivitis: good effect of alleviating gingivitis
  effect on gingivitis in combination with bamboo salt, the extract of medicinal herbs, etc.: synergistic alleviating effect on gingivitis
Plaque formation [5]
  effect on the plaque formation: no significant effect on the plaque formation
Gingivitis [6]
  alleviating effect for gingivitis: good alleviating effect for gingivitis
  effect on gingivitis in combination with bamboo salt, the extract of medicinal herbs, etc.: synergistic allevia- ting effect on gingivitis
Collagenase [7]
  concentration at which inhibition effect on collagenase begins: 0.01%
  concentration at which inhibition effect on collagenase reaches the maximum level: 0.6%
  activity for inactivating collagenase: good activity for inactivating collagenase
  inhibition effect at the concentration in excess of 0.6%: not significantly increased
  inhibition effect on collagenase activity in comparison with extracts of other medicinal herbs: superior inhibition effect on collagenase activity
Collagenase [7]; content 0.001%
  Absorbance (540 nm): 0.324
  Enzyme activity inhibition (%): -1.20%
Collagenase [7]; content 0.010%
  Absorbance (540 nm): 0.315
  Enzyme activity inhibition (%): 6.55%
Collagenase [7]; content 0.020%
  Absorbance (540 nm): 0.260
  Enzyme activity inhibition (%): 39.23%
Collagenase [7]; content 0.050%
  Absorbance (540 nm): 0.230
  Enzyme activity inhibition (%): 52.15%
Collagenase [7]; content 0.100%
  Absorbance (540 nm): 0.180
  Enzyme activity inhibition (%): 67.87%
Collagenase [7]; content 0.150%
  Absorbance (540 nm): 0.052
  Enzyme activity inhibition (%): 88.41%
Collagenase [7]; content 0.200%
  Absorbance (540 nm): 0.007
  Enzyme activity inhibition (%): 91.91%
Collagenase [7]; content 0.600%
  Absorbance (540 nm): 0.002
  Enzyme activity inhibition (%): 92.22%
Collagenase [7]; content 1.000%
  Absorbance (540 nm): 0.002
  Enzyme activity inhibition (%): 92.22%
Collagenase [7]; content 2.000%
  Absorbance (540 nm): 0.002
  Enzyme activity inhibition (%): 92.22%

## Oc1cc(Cl)ccc1Oc1ccc(Cl)cc1Cl [Triclosan, triclosan]
[2]; triclosan 0.0010
  pH: 4.3
  plaque formation(%): 100.0%
[2]; triclosan 0.0050
  pH: 4.3
  plaque formation(%): 100.0%
[2]; triclosan 0.0100
  pH: 4.3
  plaque formation(%): 100.0%
[2]; triclosan 0.0300
  pH: 4.5
  plaque formation(%): 50.0%
[2]; triclosan 0.0500
  pH: 7.5
  plaque formation(%): 0.0%

## C[C@H](CCC(=O)O)[C@H]1CC[C@H]2[C@@H]3[C@@H](O)C[C@@H]4C[C@H](O)CC[C@]4(C)[C@H]3CC[C@]12C [Ursodesoxycholic acid, ursodesoxycholic acid]
Collagenase [1]
  Absorbance (540 nm): 0.243
  Enzyme activity inhibition (%): 45.64%
[2]; 0.100 (unit not given)
  pH: 4.2
  plaque formation(%): 100.0%
Plaque formation [3]
  effect on the plaque formation: no significant effect on the plaque formation
  plaque effect in combination with the extract of other medicinal herbs: do not show any synergistic and antagonistic effect
Gingivitis [4]; Comparative Example 2, in words
  effect of alleviating gingivitis at the concentration in excess of 1.0 wt %: does not show any increase of the effect in proportion to the increase of the concentration
Gingivitis [4]
  effect of alleviating gingivitis: good effect of alleviating gingivitis
  effect on gingivitis in combination with bamboo salt, the extract of medicinal herbs, etc.: synergistic alleviating effect on gingivitis
Gingivitis [4]; human, in vivo
  concentration at which the effect of alleviating gingivitis begins: 0.01 wt %
  concentration with a significant effect in comparison with Comparative Example 4: ≥ 0.02 wt %
Plaque formation [5]
  effect on the plaque formation: no significant effect on the plaque formation
Gingivitis [6]
  alleviating effect for gingivitis: good alleviating effect for gingivitis
  effect on gingivitis in combination with bamboo salt, the extract of medicinal herbs, etc.: synergistic allevia- ting effect on gingivitis
Collagenase [7]
  concentration at which inhibition effect on collagenase begins: 0.01%
  concentration at which inhibition effect on collagenase reaches the maximum level: 0.6%
  activity for inactivating collagenase: good activity for inactivating collagenase
  inhibition effect at the concentration in excess of 0.6%: not significantly increased
  inhibition effect on collagenase activity in comparison with extracts of other medicinal herbs: superior inhibition effect on collagenase activity
Collagenase [7]; content 0.001%
  Absorbance (540 nm): 0.326
  Enzyme activity inhibition (%): -2.82%
Collagenase [7]; content 0.010%
  Absorbance (540 nm): 0.305
  Enzyme activity inhibition (%): 13.02%
Collagenase [7]; content 0.020%
  Absorbance (540 nm): 0.243
  Enzyme activity inhibition (%): 45.64%
Collagenase [7]; content 0.050%
  Absorbance (540 nm): 0.215
  Enzyme activity inhibition (%): 57.54%
Collagenase [7]; content 0.100%
  Absorbance (540 nm): 0.166
  Enzyme activity inhibition (%): 71.26%
Collagenase [7]; content 0.150%
  Absorbance (540 nm): 0.050
  Enzyme activity inhibition (%): 88.60%
Collagenase [7]; content 0.200%
  Absorbance (540 nm): 0.005
  Enzyme activity inhibition (%): 92.03%
Collagenase [7]; content 0.600%
  Absorbance (540 nm): 0.002
  Enzyme activity inhibition (%): 92.22%
Collagenase [7]; content 1.000%
  Absorbance (540 nm): 0.000
  Enzyme activity inhibition (%): 92.34%
Collagenase [7]; content 2.000%
  Absorbance (540 nm): 0.000
  Enzyme activity inhibition (%): 92.34%

Source: patent US5817297A, “Composition for enhancing oral hygiene” (LG Chemical Ltd., priority 1996, dated 1998)
